This note sets out measurements from ChEMBL document CHEMBL1201862, “PubChem BioAssay data set” (2004).

Test systems include UACC-257; SF-539; HCT-15; A498; SK-MEL-28; UO-31; A549; RPMI-8226; SF-268; M14; SR; OVCAR-3; UACC-62; Hs-578T; TK-10; SNB-75; MCF7; IGROV-1; HL-60.
What all share (test): NCI tumour cell line growth inhibition, 48 h

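1) Cells in 96-well plates. 2) Compound, 48 h, 5 concentrations. 3) Linear interpolation between surrounding doses. 4) Unreached endpoint = highest concentration. Here, GI50 denotes the concentration required for 50% inhibition of growth.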 Active and inactive are the calls of the source. Rule as the data show it: active = GI50 up to about 1.1 µM and inactive = higher.

Regarding `CSc1nc(C)c2c(n1)N(c1ccc(Cl)cc1)CC2`, the GI50 in the test with UACC-257 was > 100 µM (inactive); in the test on SF-539, 70.8 µM (inactive); with HCT-15 it was over 100 µM; with A498 it was > 100 µM (inactive); in the test with SK-MEL-28 it was > 100 µM (inactive); with UO-31, 0.342 µM (active). The GI50 in the test with A549, with RPMI-8226, with SF-268, in the test on M14, in the test with SR and with OVCAR-3 was > 100 µM (inactive) in each case. Moreover, the GI50 with UACC-62 was > 100 µM (inactive); in the test with Hs-578T it was > 100 µM (inactive); in the test on TK-10 it was > 100 µM (inactive); with SNB-75, 0.0946 µM (active); in the test with MCF7 it was > 100 µM (inactive); in the test on IGROV-1 it was > 100 µM (inactive).

Regarding `CCN(CC)C(=S)SC(C(=O)Nc1nnc(-c2ccccc2)o1)c1ccccc1` (centres undefined), the GI50 is 22.9 µM (inactive) in the test with UACC-257; 25.8 µM (inactive) in the test on SF-539; 5.24 µM in the test with HCT-15; 18.2 µM (inactive) in the test with A498; 17.9 µM (inactive) in the test with SK-MEL-28; 10.1 µM (inactive) in the test on UO-31. The GI50 is 15.3 µM (inactive) in the test with A549; 24.4 µM (inactive) with RPMI-8226; 16.1 µM (inactive) in the test on M14; 5.52 µM (inactive) with SR; 15.2 µM (inactive) in the test with OVCAR-3; 40.3 µM (inactive) in the test with Hs-578T. Also, the GI50 with TK-10 is 44.5 µM (inactive); with SNB-75, 31.9 µM (inactive); in the test on MCF7, 18.5 µM (inactive); with IGROV-1, 15.3 µM (inactive).

For `COc1ccc(-c2nc(O)c3ccccc3n2)cc1OC`, the GI50 is > 100 µM (inactive) in the test with UACC-257; 37.8 µM (inactive) in the test with SF-539; 50 µM in the test on HCT-15; > 100 µM (inactive) in the test with UO-31; 94.4 µM (inactive) in the test on A549; 54.2 µM (inactive) in the test with RPMI-8226. Further, the GI50 in the test on SF-268 is 25.2 µM (inactive); in the test with M14, > 100 µM (inactive); in the test on SR, > 100 µM (inactive); with OVCAR-3, > 100 µM (inactive); in the test with UACC-62, > 100 µM (inactive); in the test on Hs-578T, 29.2 µM (inactive). The GI50 in the test on SNB-75 was 23.8 µM (inactive); with MCF7, > 100 µM (inactive); with IGROV-1 it was 24.6 µM (inactive).

`COC(=O)[C@]1(Cc2ccc3ccccc3c2)CCCCCCN1C(=O)c1ccccc1`: the GI50 is 12.5 µM (inactive) with UACC-257; > 39.6 µM (inactive) with SF-539; over 31.8 µM with HCT-15; > 36.1 µM (inactive) in the test on A498; > 37.2 µM (inactive) in the test with SK-MEL-28; > 21 µM (inactive) with UO-31. Further, the GI50 in the test with A549 is > 100 µM (inactive); with RPMI-8226 it was 4.15 µM (inactive); in the test on SF-268 it was > 33.8 µM (inactive); in the test with M14, > 36.1 µM (inactive); in the test on SR it was > 100 µM (inactive); in the test on OVCAR-3, > 24.9 µM (inactive). The GI50 in the test with UACC-62 was > 35.6 µM (inactive); in the test with Hs-578T, 18.7 µM (inactive); with TK-10, > 36.6 µM (inactive); in the test with SNB-75, 17.5 µM (inactive); in the test with MCF7 it was > 32.2 µM (inactive); in the test on IGROV-1, > 37.8 µM (inactive).

Turning to `COc1ccc(C(=C(Cl)c2ccccc2)c2ccc(OC)cc2)cc1`, the GI50 with UACC-257 is 86.5 µM (inactive); in the test with SF-539 it was > 100 µM (inactive); in the test on HCT-15, over 100 µM; with A498, > 100 µM (inactive); with SK-MEL-28 it was > 100 µM (inactive); in the test with UO-31 it was > 100 µM (inactive). Besides, the GI50 in the test with A549 was > 100 µM (inactive); in the test on RPMI-8226, 35.1 µM (inactive); in the test on SF-268, > 100 µM (inactive); in the test with M14, > 100 µM (inactive); with OVCAR-3 it was > 100 µM (inactive); with UACC-62 it was > 100 µM (inactive). Also, the GI50 is > 100 µM (inactive) in the test on Hs-578T; > 100 µM (inactive) with TK-10; 57.8 µM (inactive) in the test with HL-60; > 100 µM (inactive) with MCF7; > 100 µM (inactive) with IGROV-1.

`COc1cc(O)c(C(C)=O)c(O)c1`: the GI50 with UACC-257 was > 100 µM (inactive); in the test with SF-539, > 100 µM (inactive); in the test with HCT-15 it was 76.7 µM; with A498, 80.5 µM (inactive); in the test on SK-MEL-28, 52.6 µM (inactive); in the test with UO-31, 59.6 µM (inactive). In addition, the GI50 with A549 is > 100 µM (inactive); in the test on SF-268, 69.8 µM (inactive); in the test on M14, 86.9 µM (inactive); in the test with SR, 36.3 µM (inactive); in the test with OVCAR-3, > 100 µM (inactive); in the test with UACC-62, 46.1 µM (inactive). For the same compound, the GI50 in the test with Hs-578T is 62.7 µM (inactive); in the test on TK-10, > 100 µM (inactive); in the test with SNB-75, 50.8 µM (inactive); with MCF7, 37.5 µM (inactive); in the test with IGROV-1 it was 77.3 µM (inactive).

Regarding `CN(CCCNC(=O)c1nn(-c2ccc(Cl)cc2Cl)c2c1Cc1ccccc1-2)CCCNC(=O)c1nn(-c2ccc(Cl)cc2Cl)c2c1Cc1ccccc1-2`, the GI50 is 1.81 µM (inactive) in the test with UACC-257; 1.19 µM (inactive) with SF-539; 1.84 µM with HCT-15; 1.71 µM (inactive) in the test on A498; 1.69 µM (inactive) in the test on SK-MEL-28; 1.82 µM (inactive) with UO-31. Moreover, the GI50 with A549 is 1.77 µM (inactive); in the test on RPMI-8226, 1.21 µM (inactive); in the test with SF-268, 1.96 µM (inactive); in the test with M14, 1.8 µM (inactive); in the test with OVCAR-3, 1.73 µM (inactive); with UACC-62, 1.57 µM (inactive). Moreover, the GI50 in the test on Hs-578T was 2.74 µM (inactive); with TK-10 it was 1.73 µM (inactive); in the test on SNB-75, 1.55 µM (inactive); in the test on HL-60 it was 1.49 µM (inactive); in the test on MCF7, 1.55 µM (inactive); with IGROV-1, 1.76 µM (inactive).

Consider `COc1c(OC(C)C)c(OC(C)C)c2oc(=O)n3c2c1C(c1ccccc1-n1c(C)ccc1C)C=C3` (centres undefined), for which the GI50 in the test with UACC-257 was 45 µM (inactive); with SF-539, 67.5 µM (inactive); in the test on HCT-15 it was 61.8 µM; in the test on A498, 92.5 µM (inactive); in the test with SK-MEL-28, 37.8 µM (inactive); with UO-31, 36.1 µM (inactive). For the same compound, the GI50 is 39.4 µM (inactive) in the test with A549; 64.6 µM (inactive) in the test on RPMI-8226; 38.1 µM (inactive) in the test on SF-268; 29.2 µM (inactive) with M14; > 100 µM (inactive) with OVCAR-3; 44.7 µM (inactive) in the test on UACC-62. For the same compound, the GI50 in the test with Hs-578T is 18.5 µM (inactive); in the test on TK-10, > 100 µM (inactive); in the test with SNB-75, 41.8 µM (inactive); in the test with HL-60, > 100 µM (inactive); with MCF7 it was 33 µM (inactive); with IGROV-1 it was 39.9 µM (inactive).

Regarding `CC(=O)O[C@@H]1[C@H](C(C)C)[C@@H](OC(C)=O)C/C(C)=C/CC[C@]2(C)O[C@@H]12`, the GI50 was > 100 µM (inactive) in the test on UACC-257; over 100 µM in the test on HCT-15; > 100 µM (inactive) in the test on A498; > 100 µM (inactive) in the test on SK-MEL-28; > 100 µM (inactive) in the test on UO-31; > 100 µM (inactive) in the test on A549. The GI50 in the test on RPMI-8226, with SF-268, with M14, in the test with OVCAR-3, in the test on UACC-62 and in the test with Hs-578T was > 100 µM (inactive) each time. The GI50 in the test with TK-10, in the test on SNB-75, in the test with HL-60, in the test on MCF7 and in the test with IGROV-1 was > 100 µM (inactive) each time.

As for `CCOC(=O)/C(C[C@H]1OC(C)(C)O[C@@H]1[C@H]1COC(C)(C)O1)=N/O`, the GI50 in the test with UACC-257 is > 100 µM (inactive); in the test on SF-539 it was > 100 µM (inactive); with HCT-15, over 100 µM; with A498, > 100 µM (inactive); in the test with SK-MEL-28, > 100 µM (inactive); in the test on UO-31, > 100 µM (inactive). Moreover, the GI50 with A549, in the test on RPMI-8226, in the test with SF-268, with M14, in the test with OVCAR-3 and in the test on UACC-62 was > 100 µM (inactive) in each case. The GI50 with Hs-578T, with TK-10, in the test with HL-60, in the test on MCF7 and with IGROV-1 was > 100 µM (inactive) throughout.

Regarding `O=C1NC(=O)C2(CCC(O)C2)c2cc[n+]([O-])cc21` (centres undefined), the GI50 in the test on UACC-257 is > 100 µM (inactive); in the test with SF-539 it was > 100 µM (inactive); in the test with HCT-15, over 100 µM; in the test with A498, > 100 µM (inactive); in the test on SK-MEL-28, > 100 µM (inactive); in the test on UO-31, > 100 µM (inactive). Also, the GI50 with A549, with RPMI-8226, in the test on SF-268, in the test with M14, with SR and in the test on OVCAR-3 was > 100 µM (inactive) throughout. Moreover, the GI50 with UACC-62 was > 100 µM (inactive); with Hs-578T, > 100 µM (inactive); with TK-10 it was > 100 µM (inactive); in the test on SNB-75, 60.1 µM (inactive); in the test on MCF7, > 100 µM (inactive); in the test on IGROV-1, > 100 µM (inactive).
